Data as given in patent publication US5474988A, “5-phenylpyrrolo-1,4-benzoxazine and 5-phenylpyrrolo-1,4-benzothiazine compounds, process and intermediates for their production and pharmaceutical compositions containing them” (Kali-Chemie Pharma GmbH, priority 1993, dated 1995).

System: 5-lipoxygenase
Assay: inhibition of 5-lipoxygenase activity in polymorphonuclear rat leucocytes (LTB4 formation)
Format: cell-based
Conditions: 10^-5 mol/l; 22° C.
Outline: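 Thioglycolate-elicited peritoneal PMNs from male Sprague-Dawley rats (0.5×10^6 cells) preincubated 15 min at 22 °C with 10 μM compound in HEPES-buffered HBSS, then stimulated with 5 μM calcimycin for 10 min. LTB4 quantified by reverse-phase HPLC at 270 nm; % inhibition versus solvent control.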

| SMILES | In vitro inhibitory activity on LTB4 formation in rat PMNs stimulated by calcium ionophore A23187 [%] |
| --- | --- |
| COc1cc(-c2c(C)c3c(O)ccc4c3n2CC(CCC(=O)N2CCN(c3ccccn3)CC2)O4)cc(C)c1O (centres unmarked) [Example 72] | 100 |
| Cc1cc(-c2c(C)c3c(F)ccc4c3n2CC(CCN2CCN(c3ccccn3)CC2)O4)cc(C)c1O (centres unmarked) [Example 27] | 90 |
| COc1cc(-c2c(C)c3cccc4c3n2CC(CCC(=O)N2CCN(c3ccc(C)cn3)CC2)O4)ccc1O (centres unmarked) [Example 39] | 98 |
| COc1ccc2c3c1c(C)c(-c1ccc(O)cc1)n3CC(CCN1CCN(c3cc(C)ccn3)CC1)O2 (centres unmarked) [Example 3, 2,3-Dihydro-5-(4-hydroxyphenyl)-7-methoxy-6-methyl-2-[2-(4-(4-methylpyridin-2-yl)piperazin-1-yl)ethyl]pyrrolo[1,2,3-de]-1,4-benzoxazine] | 96 |
| Cc1ccnc(N2CCN(CCCC3Cn4c(-c5cc(C)c(O)c(C)c5)c(C)c5c(O)ccc(c54)O3)CC2)c1 (centres unmarked) [Example 73] | 100 |
| Cc1ccnc(N2CCN(CCC3Cn4c(-c5ccc(O)cc5)c(C)c5c(O)ccc(c54)O3)CC2)c1 (centres unmarked) [Example 4, 2,3-Dihydro-7-hydroxy-5-(4-hydroxyphenyl)-6-methyl-2-[2-(4-(4-methylpyridin-2-yl)piperazin-1-yl)ethyl]pyrrolo[1,2,3-de]-1,4-benzoxazine] | 100 |
| Cc1ccnc(N2CCN(C(=O)CCC3Cn4c(-c5cc(C)c(O)c(C)c5)c(C)c5c(O)ccc(c54)O3)CC2)c1 (centres unmarked) [Example 67] | 100 |
| Cc1cc(-c2c(C)c3cccc4c3n2CC(CCCCN2CCN(c3ccccn3)CC2)O4)cc(C)c1O (centres unmarked) [Example 65] | 64 |
| COc1cc2c3c(c1)c(C)c(-c1cc(C)c(O)c(C)c1)n3CC(CCN1CCN(c3cc(C)ccn3)CC1)O2 (centres unmarked) [Example 43] | 66 |
| Cc1ccnc(N2CCN(C(=O)CCCC3Cn4c(-c5cc(C)c(O)c(C)c5)c(C)c5cccc(c54)O3)CC2)c1 (centres unmarked) [Example 9, 2,3-Dihydro-5-(3,5-dimethyl-4-hydroxyphenyl)-6-methyl-2-[4-(4-(4-methylpyridin-2-yl)piperazin-1-yl)-4-oxobutyl]-pyrrolo[1,2,3-de]-1,4-benzoxazine] | 86 |
| Cc1cccnc1N1CCN(CCCC2Cn3c(-c4cc(C)c(O)c(C)c4)c(C)c4c(O)ccc(c43)O2)CC1 (centres unmarked) [Example 74] | 100 |
| Cc1cc(-c2c(C)c3cccc4c3n2CC(CCCC(=O)N2CCN(c3ccccn3)CC2)O4)cc(C)c1O (centres unmarked) [Example 23] | 92 |
| Cc1cc(-c2c(C)c3c(OCc4ccccc4)ccc4c3n2CC(CCC(=O)N2CCN(c3ccccn3)CC2)O4)cc(C)c1O (centres unmarked) [Example 75] | 51 |
| Cc1cc(-c2c(C)c3cccc4c3n2CC(CCC(=O)N2CCN(c3ccccn3)CC2)O4)cc(C)c1O (centres unmarked) [Example 26] | 67 |
| Cc1ccnc(N2CCN(C(=O)CCC3Cn4c(-c5ccc(O)cc5)c(C)c5cccc(c54)O3)CC2)c1 (centres unmarked) [Example 15] | 94 |
| COc1cc(-c2c(C)c3cccc4c3n2CC(CCN2CCN(c3cc(C)ccn3)CC2)O4)ccc1O (centres unmarked) [Example 12] | 100 |
| Cc1ccnc(N2CCN(CCC3Cn4c(-c5cc(C)c(O)c(C)c5)c(C)c5cccc(c54)O3)CC2)c1 (centres unmarked) [Example 20] | 75 |
| Cc1ccnc(N2CCN(CCC3Cn4c(-c5ccc(O)c(O)c5)c(C)c5cccc(c54)O3)CC2)c1 (centres unmarked) [Example 13] | 98 |
| Cc1ccnc(N2CCN(CCC3Cn4c(-c5cc(C)c(O)c(C)c5)c(C)c5cc(O)cc(c54)O3)CC2)c1 (centres unmarked) [Example 44] | 100 |
| Cc1ccnc(N2CCN(CCC3Cn4c(-c5cc(C)c(O)c(C)c5)c(C)c5c(F)ccc(c54)O3)CC2)c1 (centres unmarked) [Example 28] | 48 |
| Cc1cc(-c2c(C)c3c(O)ccc4c3n2CC(CCC(=O)N2CCN(c3ccccn3)CC2)O4)cc(C)c1O (centres unmarked) [Example 71] | 100 |
| Cc1ccc(N2CCN(C(=O)CCC3Cn4c(-c5ccc(O)cc5)c(C)c5cccc(c54)O3)CC2)nc1 (centres unmarked) [Example 34] | 95 |
| Cc1ccnc(N2CCN(C(=O)CCC3Cn4c(-c5ccc(O)cc5)c(C)c5c(O)ccc(c54)O3)CC2)c1 (centres unmarked) [Example 69] | 100 |
